# Results from paper PMC6560211, “ApoAI-derived peptide increases glucose tolerance and prevents formation of atherosclerosis in mice” (Diabetologia, 2019).
# No end group written: not given here.
# Assay: Peptide stability in physiologic buffer or blood plasma
# Type: in vitro ADME
# Settings: after denaturation/refolding; phosphate buffer, human plasma (citrate, pooled from four donors) or mouse CD-1 plasma (heparin); over 2 h; LC-MS/MS
# Procedure: Peptide (lyophilised powder) produced by Red Glead (Lund, Sweden) was reconstituted in Milli-Q water and then either used directly or mixed in a 1:1 ratio with 6 mol/l guanidine HCl in 2× PBS to give a monodisperse solution, followed by desalting using a column equilibrated with PBS, pH 7.4, using ÄKTAxpress fast protein LC (GE Healthcare, Uppsala, Sweden). Peptide integrity was analysed using circular dichroism spectroscopy. Peptide solubility was assayed at Red Glead using HPLC. Peptide stability in physiologic buffer or blood plasma (human or mouse) over 2 h was assayed at the Science for Life Laboratory (Uppsala, Sweden). […]
# Peptide concentration was determined at 205 nm using a NanoDrop 2000c spectrophotometer (Thermo Scientific) and integrity was analysed by Tris-Tricine SDS-PAGE followed by coomassie staining or by circular dichroism spectroscopy (CD). […]
# The primary goal of this study was to investigate the anti -diabetic and anti-atherosclerotic efficacy of a novel ApoA -I derived peptide. Using a range of in vitro models, we assessed the effects of the peptide on HDL formation, cholesterol efflux, insulin secretion, and non -insulin dependent glucose uptake. […] Peptide effects were measured relative to full length ApoA -I and vehicle controls. […]
# Supernatants were recovered and insulin secretion was analysed by ELISA (Mercodia). […]
substance,measurement,value
Ac-AEYHAKATEHLSTLSEKAKPALEDLRQGLLPVLESFKVSFLSALEEYTKKLNTQ [RG54],peptide integrity by peptide stability assays (buffer or plasma),confirmed
